Among the data in patent US8865704B2, “Wnt pathway antagonists” (Siena Biotech S.p.A., priority 2009, dated 2014) are IC50 values, retold here.

The subject of this assay is Wnt/β-catenin pathway. Description: Wnt reporter assay (TCF-Luciferase, Firefly) in DBTRG-05MG cells. The class given is cell-based. Particulars: Homo sapiens, 24 hours after compound addition. Here is the method:
TCF-Luciferase: Three copies of a 4×TCF responsive elements were cloned into the pcDNA3.1/Zeo(+) vector (Invitrogen) after deletion of the constitutive CMV promoter and the insertion of the Firefly Luciferase from Promega (phFL-TK) to measure the activity of the Wnt/β-catenin pathway. The resulting plasmid was sequenced for quality control.
Cells were grown in 20 μg/ml Zeocin and 20 μg/ml Zeocin plus 30 μg/ml Hygromicin respectively. The cells were plated at a density of 6500 cells/well in poly-D-lysine pre-treated 96 well-plates.
IC50 determination: 36 hours after plating cells were incubated with 8-points (60 μM-40 μM-20 μM-10 μM-5 μM-1.66 μM-0.55 μM-0.185 μM) dilutions compound (0.6% DMSO (v/v)). Each compound was tested in triplicate in single plate. Luciferase detection was done with Dual-Luciferase Reporter Assay System (Promega). 24 hours after compound addition, media was removed and 30 μl of 1× lysis buffer was added to each well for 30 minutes. To each well 45 μl of Dual-Glo Luciferase reagent (Promega) were added and after 1 second delay Luciferase was detected for 1 second using Mithras LB940 instrument. After Firefly luciferase quantification 45 μl of Dual Stop & Glo reagent (Promega) were added to each well and Firefly Renilla was detected using the same parameters described before.
Data were expressed as % of control for Firefly and Renilla luciferase independently; values were calculated using XLFit version 4.2, with a four parameters sigmoid function (XLFit model 205).

Regarding `COc1ccccc1NC(=O)[C@H]1CC[C@H](CN2C(=O)Cc3ccccc3NC2=O)CC1` [Example 120], the IC50 (as a rule, the concentration needed to halve the response being measured) was 0.3 to 30 µM. With `COc1ccc2c(c1)c(=O)n(C[C@H]1CC[C@H](C(=O)N3CCN(c4nccs4)CC3)CC1)c(=O)n2C` [Example 121], the half-inhibitory concentration (IC50) fell in the range of 0.3 to 30 µM. For `CCC(C)C(=O)N1CCN(C(=O)[C@H]2CC[C@H](Cn3c(=O)c4cc(OC)ccc4n(C)c3=O)CC2)CC1` (stereo partly drawn) [Example 123] the value was 0.3 to 30 µM; for `CCCC(C)C(=O)N1CCN(C(=O)[C@H]2CC[C@H](Cn3c(=O)c4cc(OC)ccc4n(C)c3=O)CC2)CC1` (stereo partly drawn) [Example 124], 0.3 to 30 µM.

On to `COc1ccc2c(c1)c(=O)n(C[C@H]1CC[C@H](C(=O)N3CCN(C(=O)OCC(C)C)CC3)CC1)c(=O)n2C` [Example 125], for which the IC50 fell in the range of 0.3 to 30 µM. Compound `COc1ccc2[nH]c(=O)n(C[C@H]3CC[C@H](C(=O)N4CCN(C(=O)C5CC5)C[C@H]4C)CC3)c(=O)c2c1` [Example 126] gave an IC50 of 0.3 to 30 µM. For `COCC(=O)N1CCN(C(=O)[C@H]2CC[C@H](Cn3c(=O)[nH]c4ccc(OC)cc4c3=O)CC2)[C@H](C)C1` [Example 127] the value was 0.3 to 30 µM. The same measure for `COc1ccc2c(c1)c(=O)n(C[C@H]1CC[C@H](C(=O)N3CCN(C(=O)[C@@H]4CCCO4)CC3)CC1)c(=O)n2C` [Example 128]: 0.3 to 30 µM. For `COc1ccc2c(c1)c(=O)n(C[C@H]1CC[C@H](C(=O)N3CCN(C(=O)C4CCC4)CC3)CC1)c(=O)n2C` [Example 129] the value was 0.3 to 30 µM; for `COc1ccc2c(c1)c(=O)n(C[C@H]1CC[C@H](C(=O)N3CCN(C(=O)OC(C)C)CC3)CC1)c(=O)n2C` [Example 130], 0.3 to 30 µM. In the case of `COc1ccc2c(c1)c(=O)n(C[C@H]1CC[C@H](C(=O)N3CCN(C(=O)[C@H]4CCCO4)CC3)CC1)c(=O)n2C` [Example 131], the IC50 fell in the range of 0.3 to 30 µM. The same measure for `COc1ccc2c(c1)c(=O)n(C[C@H]1CC[C@H](C(=O)N3CCN(CC4CC4)C(=O)C3)CC1)c(=O)n2C` [Example 132]: 0.3 to 30 µM; for `COCC(=O)N1CCN(C(=O)[C@H]2CC[C@H](Cn3c(=O)[nH]c4ccc(OC)cc4c3=O)CC2)[C@@H](C)C1` [Example 133]: 0.3 to 30 µM; for `COc1ccc2[nH]c(=O)n(C[C@H]3CC[C@H](C(=O)N4CCN(C(=O)C5CC5)CC4)CC3)c2c1` [Example 134]: 0.3 to 30 µM. The same measure for `COCCC(=O)N1CCN(C(=O)[C@H]2CC[C@H](Cn3c(=O)c4cc(OC)ccc4n(C)c3=O)CC2)CC1` [Example 137]: 0.3 to 30 µM; for `COc1ccc2c(c1)c(=O)n(C[C@H]1CC[C@H](C(=O)N3CCN(C(=O)C4CC4)C[C@H]3C)CC1)c(=O)n2C` [Example 138]: 0.3 to 30 µM. The same measure for `COc1ccc2[nH]c(=O)n(C[C@H]3CC[C@H](C(=O)N4CCN(c5ccncc5)CC4)CC3)c(=O)c2c1` [Example 139]: 0.3 to 30 µM.

`COc1ccc2[nH]c(=O)n(C[C@H]3CC[C@H](C(=O)N4CCN(c5cccc(OC)n5)CC4)CC3)c(=O)c2c1` [Example 140] returned an IC50 of 0.3 to 30 µM. The same measure for `COc1ccc2c(c1)c(=O)n(C[C@H]1CC[C@H](C(=O)N3CCN(C(=O)COC(C)C)CC3)CC1)c(=O)n2C` [Example 141]: 0.3 to 30 µM; for `COc1ccc2c(c1)c(=O)n(C[C@H]1CC[C@H](C(=O)N3CCN(C(=O)C(C)OC)CC3)CC1)c(=O)n2C` (stereo partly drawn) [Example 142]: 0.3 to 30 µM. For `Cc1ccc2[nH]c(=O)n(C[C@H]3CC[C@H](C(=O)N4CCN(C(=O)C(C)C)CC4)CC3)c(=O)c2c1` [Example 143] the value was 0.3 to 30 µM. As to `COCC(=O)N1CCN(C(=O)[C@H]2CC[C@H](Cn3c(=O)c4cc(OC)ccc4n(C)c3=O)CC2)[C@H](C)C1` [Example 144], the IC50 lay in the range of 0.3 to 30 µM.

In turn, `COCC(=O)N1CCN(C(=O)[C@H]2CC[C@H](Cn3c(=O)c4cc(OC)ccc4n(C)c3=O)CC2)[C@@H](C)C1` [Example 145] registered a 50% inhibitory concentration (IC50) of 0.3 to 30 µM. In turn, `COc1ccc2c(c1)c(=O)n(C[C@H]1CC[C@H](C(=O)N3CCN(C(=O)c4ccncn4)CC3)CC1)c(=O)n2C` [Example 147] gave a concentration for half-maximal inhibition (IC50) of 0.3 to 30 µM.
